Values joined by “and” are separate entries in the source; they are usually repeats but may differ in a detail not shown here. Identical values can stand only once.
Tests used:
[1] = tested on: Ehrlich ascites cells; assay: Ehrlich ascites tumour in mice, test substance in drinking water (Example 2); assay type: in vivo, adult female white Swiss mice; parameters: average weight of the tumours / weight of the excised tissues (tumour): unit not given here
Protocol: 30 adult female white Swiss mice were inoculated behind the right foreleg on the ventral side with about 5 x 10^6 Ehrlich ascites cells in 0.2 ml of physiological saline. The mice were randomized and divided into three groups, each group containing 10 animals. All animals received water to drink during days 1 and 2. On day 3, the water of one group (Group B) was replaced by a 0.05 molar solution of glyoxal whilst the water of another group (Group C) was replaced by a 0.05 molar solution of a glyoxal-cysteine adduct prepared essentially as described in Example 1. The third, or control, group (Group A) continued to receive water. All groups could drink ad libidum.
No weight loss was observed.
All animals were narcotized and their tumours excised and cleaned from the surrounding tissues.
In the cases where the tumour which developed was slightly ascitic, the fluid was not weighed and this is believed to account for the rather lower weight of these tumours.

[2] = tested on: tumour cells; conditions: cited from earlier work

SMILES	toxic symptoms or loss of weight ([1]; after 7 days, 0.05 molar solution as drinking water)	size or form of the tumour on visual inspection ([1]; after 7 days, compared with control group)	inhibition over the control ([1]; from average tumour weights, 0.05 molar solution as drinking water)	average weight of the tumours ([1]; group of 10 mice, 0.05 molar solution as drinking water from day 3, control group average 1200)	weight of the excised tissues (tumour) ([1]; individual animals, 0.05 molar solution as drinking water from day 3, ad libitum, excised after 7 days, * = slightly ascitic tumour, fluid not weighed)	toxicity to cells of normal tissues [2]
O=CC=O [glyoxal]	no toxic symptoms or loss of weight	No significant decrease	about 18%	985	800 and 530 and 190 and 90* and 1270 and 330 and 1220 and 1700 and 2740 and 980	
CC(O)C=CC=O (stereo not drawn) [4-hydroxypentenal]						only slightly toxic

— patent EP0060659A1, “Pharmaceutical composition for tumour treatment and process for preparing it” (NATIONAL FOUNDATION FOR CANCER RESEARCH, INC., priority 1981, dated 1982)
